Assay results taken from ChEMBL document CHEMBL1141148, “Antidiabetic activity of passive nonsteroidal glucocorticoid receptor modulators” (J Med Chem, 2005).
Calls of active or inactive are those of the source. No cut-off for these calls is given here.

Columns and labels:
[1] = biological target: T1, Mineralocorticoid receptor (Homo sapiens, UniProt P08235); experiment: Inhibition of human mineralocorticoid receptor
T1 sequence (P08235 whole entry): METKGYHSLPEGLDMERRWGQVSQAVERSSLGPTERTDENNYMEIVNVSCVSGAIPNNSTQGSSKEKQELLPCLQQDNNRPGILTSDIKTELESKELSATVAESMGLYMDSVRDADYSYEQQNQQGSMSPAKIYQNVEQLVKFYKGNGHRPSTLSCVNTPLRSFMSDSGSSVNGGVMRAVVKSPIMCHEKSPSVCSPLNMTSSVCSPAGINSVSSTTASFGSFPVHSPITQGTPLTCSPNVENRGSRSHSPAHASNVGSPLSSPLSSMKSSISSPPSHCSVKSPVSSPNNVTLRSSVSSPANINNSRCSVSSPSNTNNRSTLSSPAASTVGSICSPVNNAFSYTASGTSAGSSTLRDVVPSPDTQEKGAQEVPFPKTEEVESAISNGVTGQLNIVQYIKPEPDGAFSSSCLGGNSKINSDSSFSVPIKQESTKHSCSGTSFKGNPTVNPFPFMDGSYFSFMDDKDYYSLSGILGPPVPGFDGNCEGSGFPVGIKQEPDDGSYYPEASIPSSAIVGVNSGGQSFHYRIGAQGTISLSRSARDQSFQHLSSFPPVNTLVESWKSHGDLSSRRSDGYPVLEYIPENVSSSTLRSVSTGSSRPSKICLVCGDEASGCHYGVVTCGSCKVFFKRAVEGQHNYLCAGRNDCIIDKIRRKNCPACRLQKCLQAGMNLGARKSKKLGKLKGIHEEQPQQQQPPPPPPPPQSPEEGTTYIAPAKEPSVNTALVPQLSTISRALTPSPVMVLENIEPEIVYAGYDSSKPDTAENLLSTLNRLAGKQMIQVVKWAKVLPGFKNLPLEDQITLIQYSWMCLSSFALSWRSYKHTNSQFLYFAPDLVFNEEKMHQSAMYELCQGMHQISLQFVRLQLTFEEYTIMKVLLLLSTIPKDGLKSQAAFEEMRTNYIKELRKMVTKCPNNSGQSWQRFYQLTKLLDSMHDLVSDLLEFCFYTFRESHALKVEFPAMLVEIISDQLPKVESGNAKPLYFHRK

Glucocorticoid receptor [2] = biological target: T2, Glucocorticoid receptor (Rattus norvegicus, UniProt P06536); experiment: Inhibition of [3H]dexamethasone binding to rat glucocorticoid receptor
T2 sequence (P06536 whole entry): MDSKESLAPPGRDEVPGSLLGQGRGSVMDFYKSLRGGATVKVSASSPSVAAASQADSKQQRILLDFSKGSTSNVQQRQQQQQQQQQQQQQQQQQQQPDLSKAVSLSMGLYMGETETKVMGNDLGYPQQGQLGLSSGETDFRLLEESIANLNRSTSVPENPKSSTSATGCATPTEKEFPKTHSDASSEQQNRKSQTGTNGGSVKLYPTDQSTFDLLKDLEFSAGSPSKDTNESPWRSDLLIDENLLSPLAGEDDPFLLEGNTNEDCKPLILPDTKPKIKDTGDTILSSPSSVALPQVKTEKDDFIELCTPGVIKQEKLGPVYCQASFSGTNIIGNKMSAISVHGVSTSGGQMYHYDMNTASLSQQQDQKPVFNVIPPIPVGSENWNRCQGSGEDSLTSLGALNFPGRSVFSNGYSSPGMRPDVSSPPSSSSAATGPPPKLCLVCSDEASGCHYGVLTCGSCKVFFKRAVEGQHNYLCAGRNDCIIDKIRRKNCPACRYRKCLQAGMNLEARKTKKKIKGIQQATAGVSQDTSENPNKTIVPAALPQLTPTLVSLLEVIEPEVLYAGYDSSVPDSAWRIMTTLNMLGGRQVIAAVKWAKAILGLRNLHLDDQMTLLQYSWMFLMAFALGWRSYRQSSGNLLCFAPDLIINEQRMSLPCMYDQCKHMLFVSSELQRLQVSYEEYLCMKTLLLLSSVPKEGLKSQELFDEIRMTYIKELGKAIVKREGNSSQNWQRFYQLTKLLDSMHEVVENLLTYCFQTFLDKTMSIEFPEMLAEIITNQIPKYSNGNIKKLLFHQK

[3] = Half life period of the compound in rat hepatocytes was determined; type: ADME, cell-based, Liver, Hepatocyte
[4] = Half life period of the compound in rat liver microsomes was determined; type: ADME, Microsome
Glucocorticoid receptor [5] = biological target: T3, Glucocorticoid receptor (Homo sapiens, UniProt P04150); experiment: Antagonistic activity against 5 nM Dexamethasone induced glucocorticoid receptor mediated alkaline phosphatase activity; type: functional
T3 sequence (P04150 whole entry): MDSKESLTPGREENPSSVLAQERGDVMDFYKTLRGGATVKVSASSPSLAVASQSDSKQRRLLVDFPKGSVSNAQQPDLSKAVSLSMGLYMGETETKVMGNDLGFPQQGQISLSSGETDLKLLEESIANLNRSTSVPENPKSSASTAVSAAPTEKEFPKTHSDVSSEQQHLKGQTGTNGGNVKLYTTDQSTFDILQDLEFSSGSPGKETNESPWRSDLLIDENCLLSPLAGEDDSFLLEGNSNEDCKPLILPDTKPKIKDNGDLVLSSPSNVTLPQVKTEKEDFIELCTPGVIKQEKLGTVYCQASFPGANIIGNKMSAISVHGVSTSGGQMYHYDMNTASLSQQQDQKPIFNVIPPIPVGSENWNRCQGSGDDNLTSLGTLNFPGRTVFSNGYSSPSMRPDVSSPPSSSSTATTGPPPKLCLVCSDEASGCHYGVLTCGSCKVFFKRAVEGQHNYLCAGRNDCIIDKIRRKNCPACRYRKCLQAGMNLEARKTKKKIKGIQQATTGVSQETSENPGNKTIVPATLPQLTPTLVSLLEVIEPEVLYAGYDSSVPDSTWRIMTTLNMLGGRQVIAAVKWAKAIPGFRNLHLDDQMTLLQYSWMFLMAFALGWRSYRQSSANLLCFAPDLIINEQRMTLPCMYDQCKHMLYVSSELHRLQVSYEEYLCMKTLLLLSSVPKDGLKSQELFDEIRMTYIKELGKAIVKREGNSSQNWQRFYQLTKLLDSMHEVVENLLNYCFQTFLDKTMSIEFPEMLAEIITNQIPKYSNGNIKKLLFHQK

Glucocorticoid receptor [6] = biological target: T3, Glucocorticoid receptor
[7] = biological target: T4, Glucocorticoid receptor (Homo sapiens) (UniProt P04150); details: Huh-7
T4 sequence (whole entry): T3 sequence (P04150 whole entry)

Agonistic activity [7]	SMILES	IC50 [1]	IC50 (Glucocorticoid receptor [2])	half-life [3]	half-life [4]	IC50 (Glucocorticoid receptor [5])	IC50 (Glucocorticoid receptor [6])
–	Cc1c(NS(C)(=O)=O)cccc1N(Cc1ccccc1)Cc1ccc(Oc2ccc(OCC(=O)O)cc2)cc1	690 nM	2.1 nM	9.9 h	4.6 h	–	–
inactive	Cc1c(NS(C)(=O)=O)cccc1N(Cc1ccc(Oc2ccc(Cl)c(OCC(=O)O)c2)cc1)Cc1ccc(F)cc1F	1000 nM	1.9 nM	–	–	500 nM	2.6 nM
inactive	Cc1c(NS(C)(=O)=O)cccc1N(Cc1ccccc1)Cc1ccc(Oc2cccc(OCCCC(=O)NCCCC(=O)O)c2)cc1	120 nM	1 nM	–	–	–	–
–	CC#C[C@]1(O)CC[C@H]2[C@@H]3CCC4=CC(=O)CC[C@]4(Cc4ccc(C)cc4)C3=CC[C@@]21C	6300 nM	2.4 nM	< 0.2 h	0.33 h	43 nM	2.4 nM

SMILES	Agonistic activity [7]	IC50 [1]	IC50 (Glucocorticoid receptor [2])	half-life [3]	half-life [4]	IC50 (Glucocorticoid receptor [5])	IC50 (Glucocorticoid receptor [6])
Cc1c(NS(C)(=O)=O)cccc1N(Cc1ccc(Oc2ccc(F)c(OCC(=O)O)c2)cc1)Cc1ccc(F)cc1F	inactive	–	0.2 nM	6.5 h	4.1 h	440 nM	4.8 nM
